From paper PMC9610285 (Pharmaceutics, 2022)

Details: healthy volunteers, 1 mg single oral dose

SMILES: C#CCN[C@@H]1CCc2ccccc21 [rasagiline, Rasagiline]
- adverse drug reactions (AEs causally related to rasagiline intake): Only one AE (headache)
